Experimental data: patent US9586931B2 (Merck Sharp & Dohme Corp., priority 2012, dated 2017)

Each compound was assayed against T1, recombinant human GST-Syk (Homo sapiens, UniProt P43405) (assay: Homogeneous Time-Resolved Fluorescence (HTRF) assay for the recombinant human Syk enzyme). Settings: recombinant human GST-Syk 5 pM, ATP 25 μM, 10-dose titration 10 μM to 0.508 nM; read-out: rhSYK Activity IC50.
T1 construct: purchased Carna Biosciences 08-176
Type: biochemical
Outline: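 GST-hSyk fusion protein phosphorylated a peptide for 45 min at room temperature. The reaction was quenched with 2 nM Eu-anti-phosphotyrosine antibody and 70 nM SA-APC in 15 mM Tris pH 7.5, 40 mM EDTA, 0.01% Tween 20. The HTRF signal was read after 30 min.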
Compound `Cc1cc(Nc2cc(C(F)(F)F)ccn2)nc(-c2cn(C(C)C(O)CC#N)nn2)c1` (centres unmarked) [Example 4.10, 3-hydroxy-4-[4-(4-methyl-6-{[4-(trifluoromethyl)pyridin-2-yl]amino}pyridin-2-yl)-1H-1,2,3-triazol-1-yl]pentanenitrile] has an IC50 of 5.7 nM. In the case of `Cc1cc(Nc2cc(C(F)F)ccn2)nc(-c2cn(CC3OC(=O)NC3C)nn2)c1` (single isomer, unassigned) [Example 7.15, 5-((4-(6-((4-(difluoromethyl)pyridin-2-yl)amino)-4-methylpyridin-2-yl)-1H-1,2,3-triazol-1-yl)methyl)-4-methyloxazolidin-2-one], the IC50 is reported as 4.3 nM. With `COc1nc(Nc2cc(C)cc(-c3cn(CC(C)(O)C(C)(C)O)nn3)c2)ncc1Cl` (centres unmarked) [Example 21.27, 1-(4-{3-[(5-chloro-4-methoxypyrimidin-2-yl)amino]-5-methylphenyl}-1H-1,2,3-triazol-1-yl)-2,3-dimethylbutane-2,3-diol] the IC50 was 41.5 nM. `Cc1cc(Nc2nccc(C(F)F)n2)cc(-c2cn(CC3CNC(=O)C3)nn2)c1` (single isomer, unassigned) [Example 28.2, 4-((4-(3-((4-(difluoromethyl)pyrimidin-2-yl)amino)-5-methylphenyl)-1H-1,2,3-triazol-1-yl)methyl)pyrrolidin-2-one] was tested, and the IC50 was 5.4 nM. `Cc1cc(Nc2cc(C(F)(F)F)ccn2)nc(-c2nnc(C)n2C)c1` [Example 16.1, 6-(4,5-dimethyl-4H-1,2,4-triazol-3-yl)-4-methyl-N-[4-(trifluoromethyl)pyridin-2-yl]pyridin-2-amine] was tested, and the IC50 was 650 nM. `Cc1cc(Nc2cc(OC3CCC3)ccn2)nc(-c2cn(C(C)c3ccc(C(=O)O)cc3)nn2)c1` (centres unmarked) [Example 2.8, 4-{1-[4-(6-{[4-(cyclobutyloxy)pyridin-2-yl]amino}-4-methylpyridin-2-yl)-1H-1,2,3-triazol-1-yl]ethyl}benzoic acid] gave an IC50 of 5050 nM. `Cc1cc(Nc2cc(C(F)(F)F)ccn2)nc(-c2cn(C3CCCCC(O)C3O)nn2)c1` (single isomer, unassigned) [Example 10.2, 3-[4-(4-methyl-6-{[4-(trifluoromethyl)pyridin-2-yl]amino}pyridin-2-yl)-1H-1,2,3-triazol-1-yl]cycloheptane-1,2-diol] showed an IC50 of 17.7 nM. `Cc1cc(Nc2nccc(C(F)(F)F)n2)cc(-c2cn(CC(O)CO)nn2)c1` (racemic) [Example 5.76, 3-[4-(3-methyl-5-{[4-(trifluoromethyl)pyrimidin-2-yl]amino}phenyl)-1H-1,2,3-triazol-1-yl]propane-1,2-diol] gave an IC50 of 32.4 nM. `Cc1cc(Nc2cc(C(F)(F)F)ccn2)nc(-c2cn([C@@H](C)C(=O)NCC(N)=O)nn2)c1` [Example 1.22, (2S)-N-(2-amino-2-oxoethyl)-2-[4-(4-methyl-6-{[4-(trifluoromethyl)pyridin-2-yl]amino}pyridin-2-yl)-1H-1,2,3-triazol-1-yl]propanamide] gave an IC50 of 22.8 nM. `Cc1cc(Nc2cc(C(F)(F)F)ccn2)nc(-c2cn(C(CO)c3ccccc3)nn2)c1` (centres unmarked) [Example 13.8, 2-[4-(4-methyl-6-{[4-(trifluoromethyl)pyridin-2-yl]amino}pyridin-2-yl)-1H-1,2,3-triazol-1-yl]-2-phenylethanol] showed an IC50 of 7.1 nM. In the case of `Cc1cc(Nc2cc(C(F)(F)F)ccn2)nc(-c2cn(CC3=CCCCC3)nn2)c1` [Example 9.6, 6-[1-(cyclohex-1-en-1-ylmethyl)-1H-1,2,3-triazol-4-yl]-4-methyl-N-[4-(trifluoromethyl)pyridin-2-yl]pyridin-2-amine], the IC50 is reported as 78.8 nM. In the case of `COC(=O)C1CCC(n2cc(-c3cc(C)cc(Nc4cc(C(F)(F)F)ccn4)n3)nn2)CC1(C)C` (centres unmarked) [Example 9.3, methyl 2,2-dimethyl-4-[4-(4-methyl-6-{[4-(trifluoromethyl)pyridin-2-yl]amino}pyridin-2-yl)-1H-1,2,3-triazol-1-yl]cyclohexane-carboxylate], the IC50 is reported as 313 nM. `Cc1cc(Nc2ncc(Cl)c(C)n2)cc(-c2cn(CC(C)(O)C(C)(C)O)nn2)c1` (centres unmarked) [Example 21.30, 1-(4-{3-[(5-chloro-4-methylpyrimidin-2-yl)amino]-5-methylphenyl}-1H-1,2,3-triazol-1-yl)-2,3-dimethylbutane-2,3-diol] showed an IC50 of 88.5 nM. In the case of `COc1nc(Nc2cc(C)cc(-c3cn(CC(C)(O)C(C)(C)O)nn3)c2)ncc1F` (centres unmarked) [Example 21.20, 1-(4-{3-[(5-fluoro-4-methoxypyrimidin-2-yl)amino]-5-methylphenyl}-1H-1,2,3-triazol-1-yl)-2,3-dimethylbutane-2,3-diol], the IC50 is reported as 109 nM. For `Cc1cc(Nc2cc(C(F)F)ccn2)nc(-c2cn(CC(C)(O)C(C)(C)O)nn2)c1` (centres unmarked) [Example 21.9, 1-[4-(6-{[4-(difluoromethyl)pyridin-2-yl]amino}-4-methylpyridin-2-yl)-1H-1,2,3-triazol-1-yl]-2,3-dimethylbutane-2,3-diol], the IC50 was 13.5 nM. With `Cc1cc(Nc2nccc(C(F)(F)F)n2)cc(-c2cn(C(C)C(O)CC#N)nn2)c1` (single isomer, unassigned) [Example 4.9, 3-hydroxy-4-[4-(3-methyl-5-{[4-(trifluoromethyl)pyrimidin-2-yl]amino}phenyl)-1H-1,2,3-triazol-1-yl]pentanenitrile] the IC50 was 25.2 nM. Compound `Cc1cc(Nc2cc(C(C)C)ccn2)nc(-c2cn(C(C)c3ccc(C(=O)O)cc3)nn2)c1` (centres unmarked) [Example 2.13, 4-{1-[4-(4-methyl-6-{[4-(1-methylethyl)pyridin-2-yl]amino}pyridin-2-yl)-1H-1,2,3-triazol-1-yl]ethyl}benzoic acid] has an IC50 of 8.4 nM. For `Cc1cc(Nc2cc(C(F)(F)F)ccn2)nc(-c2cn([C@@H](C)C(=O)O)nn2)c1` [Example 5.30, (2S)-2-[4-(4-methyl-6-{[4-(trifluoromethyl)pyridin-2-yl]amino}pyridin-2-yl)-1H-1,2,3-triazol-1-yl]propanoic acid], the IC50 was 39.8 nM. Work on `Cc1cc(Nc2cc(C(F)F)ccn2)nc(-c2cn(CC(C)(O)CC#N)nn2)c1` (single isomer, unassigned) [Example 23.1, 4-(4-(6-((4-(difluoromethyl)pyridin-2-yl)amino)-4-methylpyridin-2-yl)-1H-1,2,3-triazol-1-yl)-3-hydroxy-3-methylbutanenitrile] yielded an IC50 of 7.3 nM. `Cc1cc(Nc2cc(C(F)(F)F)ccn2)nc(-c2cn(C[C@@H](O)C(N)=O)nn2)c1` [Example 1.14, (2R)-2-hydroxy-3-[4-(4-methyl-6-{[4-(trifluoromethyl)pyridin-2-yl]amino}pyridin-2-yl)-1H-1,2,3-triazol-1-yl]propanamide] was tested, and the IC50 was 9.1 nM. Work on `Cc1cc(Nc2cc(C(F)(F)F)ccn2)nc(-c2cn(C(C)C(=O)NCCc3cccc(Oc4ccccc4)c3)nn2)c1` (centres unmarked) [Example 1.36, 2-[4-(4-methyl-6-{[4-(trifluoromethyl)pyridin-2-yl]amino}pyridin-2-yl)-1H-1,2,3-triazol-1-yl]-N-[2-(3-phenoxyphenyl)ethyl]propanamide] yielded an IC50 of 1460 nM. Compound `Cc1cc(Nc2cc(C(F)(F)F)ccn2)nc(-c2cn(C3CNCC3O)nn2)c1` (racemic) [Example 5.22, 4-[4-(4-methyl-6-{[4-(trifluoromethyl)pyridin-2-yl]amino}pyridin-2-yl)-1H-1,2,3-triazol-1-yl]pyrrolidin-3-ol] has an IC50 of 19.8 nM. `Cc1cc(Nc2nccc(C(F)(F)F)n2)cc(-c2cn(CC(O)C(F)(F)F)nn2)c1` (racemic) [Example 5.54, 1,1,1-trifluoro-3-[4-(3-methyl-5-{[4-(trifluoromethyl)pyrimidin-2-yl]amino}phenyl)-1H-1,2,3-triazol-1-yl]propan-2-ol] showed an IC50 of 29.4 nM.
